Test results reported in ChEMBL document CHEMBL3745645, “Synthesis, in vitro antitumor activity, dihydrofolate reductase inhibition, DNA intercalation and structure-activity relationship studies of 1,3,5-triazine analogues” (Bioorg Med Chem Lett, 2016).
The source made the active and inactive calls. The calls are words filed in the database; no cut-off is given here.

Tests used:
SN12C = assay: Cytotoxicity against human SN12C cells at 10 uM after 48 hrs by SRB assay; type: functional; settings: read-out: GI
[1] = Cytotoxicity against human UO31 cells at 10 uM after 48 hrs by SRB assay; type: functional; settings: UO-31, 48 h, read-out: GI
[2] = Cytotoxicity against human DU145 cells at 10 uM after 48 hrs by SRB assay; type: functional; settings: DU-145, 48 h, read-out: GI
MCF7 [3] = assay: Cytotoxicity against human MCF7 cells at 10 uM after 48 hrs by SRB assay; type: functional; settings: MCF7, 48 h, read-out: GI
[4] = Cytotoxicity against human Hs 578T cells at 10 uM after 48 hrs by SRB assay; type: functional; settings: read-out: GI
T47D = assay: Cytotoxicity against human T47D cells at 10 uM after 48 hrs by SRB assay; type: functional; settings: read-out: GI
[5] = Cytotoxicity against human HL-60(TB) cells after 48 hrs by SRB assay; type: functional; settings: HL-60, 48 h, read-out: LC50 (the source's name)
K562 = assay: Cytotoxicity against human K562 cells after 48 hrs by SRB assay; type: functional; settings: K562, 48 h
[6] = Cytotoxicity against human MOLT4 cells after 48 hrs by SRB assay; type: functional; settings: MOLT-4, 48 h, read-out: LC50 (the source's name)
[7] = Cytotoxicity against human RPMI8226 cells after 48 hrs by SRB assay; type: functional; settings: RPMI-8226, 48 h, read-out: LC50 (the source's name)
SR [8] = assay: Cytotoxicity against human SR cells after 48 hrs by SRB assay; type: functional
A549 [9] = assay: Cytotoxicity against human A549 cells after 48 hrs by SRB assay; type: functional; settings: A549, 48 h, pooled result: one value given for 8 cell lines, strains, targets or settings
[10] = Cytotoxicity against human SF268 cells after 48 hrs by SRB assay; type: functional; settings: SF-268, 48 h, pooled result: one value given for 6 cell lines, strains, targets or settings
786-0 [11] = assay: Cytotoxicity against human 786-0 cells after 48 hrs by SRB assay; type: functional; settings: 786-0, 48 h, pooled result: one value given for 8 cell lines, strains, targets or settings
[12] = Cytotoxicity against human DU145 cells after 48 hrs by SRB assay; type: functional; settings: DU-145, 48 h, read-out: LC50 (the source's name)
MCF7 [13] = assay: Cytotoxicity against human MCF7 cells after 48 hrs by SRB assay; type: functional; settings: MCF7, 48 h, pooled result: one value given for 6 cell lines, strains, targets or settings
Dihydrofolate reductase = target: T1, Dihydrofolate reductase (Homo sapiens, UniProt P00374); assay: Inhibition of human recombinant DHFR expressed in Escherichia coli by spectrophotometric analysis
T1 sequence (P00374 whole entry): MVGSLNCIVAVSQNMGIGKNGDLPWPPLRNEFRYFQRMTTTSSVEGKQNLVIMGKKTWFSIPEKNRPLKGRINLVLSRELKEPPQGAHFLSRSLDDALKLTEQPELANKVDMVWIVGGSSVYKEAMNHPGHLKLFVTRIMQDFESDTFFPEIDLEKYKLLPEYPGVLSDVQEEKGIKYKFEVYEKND

Calf thymus DNA [14] = assay: Binding affinity to calf thymus DNA by UV-vis spectrometric analysis; type: nucleic-acid assay; settings: Bos taurus
Calf thymus DNA [15] = assay: Binding affinity to calf thymus DNA by fluorescence spectrophotometric analysis; type: nucleic-acid assay; settings: Bos taurus
Calf thymus DNA [16] = assay: Binding affinity to calf thymus DNA assessed as melting temperature by spectrophotometric analysis (reference value: 60 degC); type: nucleic-acid assay; settings: Bos taurus
CCRF-CEM = assay: Cytotoxicity against human CCRF-CEM cells at 10 uM after 48 hrs by SRB assay; type: functional
SR [17] = assay: Cytotoxicity against human SR cells at 10 uM after 48 hrs by SRB assay; type: functional
A549 [18] = assay: Cytotoxicity against human A549 cells at 10 uM after 48 hrs by SRB assay; type: functional; settings: A549, 48 h, read-out: GI
[19] = Cytotoxicity against human HOP62 cells at 10 uM after 48 hrs by SRB assay; type: functional; settings: HOP-62, 48 h, read-out: GI
[20] = Cytotoxicity against human HOP92 cells at 10 uM after 48 hrs by SRB assay; type: functional; settings: HOP-92, 48 h, read-out: GI
NCI-H322M = assay: Cytotoxicity against human NCI-H322M cells at 10 uM after 48 hrs by SRB assay; type: functional; settings: read-out: GI
NCI-H522 = assay: Cytotoxicity against human NCI-H522 cells at 10 uM after 48 hrs by SRB assay; type: functional; settings: NCI-H522, 48 h, read-out: GI
[21] = Cytotoxicity against human HCT116 cells at 10 uM after 48 hrs by SRB assay; type: functional; settings: HCT-116, 48 h, read-out: GI
KM12 = assay: Cytotoxicity against human KM12 cells at 10 uM after 48 hrs by SRB assay; type: functional; settings: KM12, 48 h, read-out: GI
[22] = Cytotoxicity against human SF268 cells at 10 uM after 48 hrs by SRB assay; type: functional; settings: SF-268, 48 h, read-out: GI
[23] = Cytotoxicity against human SF539 cells at 10 uM after 48 hrs by SRB assay; type: functional; settings: SF-539, 48 h, read-out: GI
[24] = Cytotoxicity against human SNB19 cells at 10 uM after 48 hrs by SRB assay; type: functional; settings: SNB-19, 48 h, read-out: GI
U-251 = assay: Cytotoxicity against human U251 cells at 10 uM after 48 hrs by SRB assay; type: functional; settings: U-251, 48 h, read-out: GI
Malme-3M = assay: Cytotoxicity against human MALME-3M cells at 10 uM after 48 hrs by SRB assay; type: functional; settings: read-out: GI
M14 = assay: Cytotoxicity against human M14 cells at 10 uM after 48 hrs by SRB assay; type: functional; settings: M14, 48 h, read-out: GI
SK-MEL-2 = assay: Cytotoxicity against human SK-MEL-2 cells at 10 uM after 48 hrs by SRB assay; type: functional; settings: SK-MEL-2, 48 h, read-out: GI
SK-MEL-5 = assay: Cytotoxicity against human SK-MEL-5 cells at 10 uM after 48 hrs by SRB assay; type: functional; settings: SK-MEL-5, 48 h, read-out: GI
[25] = Cytotoxicity against human OVCAR5 cells at 10 uM after 48 hrs by SRB assay; type: functional; settings: OVCAR-5, 48 h, read-out: GI
[26] = Cytotoxicity against human SKOV3 cells at 10 uM after 48 hrs by SRB assay; type: functional; settings: SK-OV-3, 48 h, read-out: GI
786-0 [27] = assay: Cytotoxicity against human 786-0 cells at 10 uM after 48 hrs by SRB assay; type: functional; settings: 786-0, 48 h, read-out: GI
A498 = assay: Cytotoxicity against human A498 cells at 10 uM after 48 hrs by SRB assay; type: functional; settings: A498, 48 h, read-out: GI
ACHN = assay: Cytotoxicity against human ACHN cells at 10 uM after 48 hrs by SRB assay; type: functional; settings: read-out: GI
[28] = Cytotoxicity against human MOLT4 cells at 10 uM after 48 hrs by SRB assay; type: functional; settings: MOLT-4, 48 h, read-out: GI

Work on COc1ccc(-c2nc(Nc3ccc(F)cc3)nc(Nc3ccc4c(c3)nc(C)n4Cc3ccccc3)n2)cc1 yielded an inhibition of growth at 10 µM (SN12C) of 51.6%, an inhibition of growth at 10 µM [1] of 70.7% and an inhibition of growth at 10 µM [2] of 45.3%. It also gave an inhibition of growth at 10 µM (MCF7 [3]) of 77.4%, an inhibition of growth at 10 µM [4] of 45.5% and an inhibition of growth at 10 µM (T47D) of 88.5%. It also gave a CC50 [5] of over 100 µM, an LC50 (K562) of over 100 µM and a CC50 [6] of over 100 µM. It also gave a CC50 [7] of over 100 µM, an LC50 (concentration killing 50% of cells) (SR [8]) of over 100 µM and a GI50 (A549 [9]) of 5.14 µM. The LC50 (A549 [9]) was over 100 µM, the TGI (A549 [9]) was 20.9 µM and the GI50 [10] was 4.98 µM. The LC50 (concentration killing 50% of cells) [10] was over 100 µM, the TGI [10] was over 100 µM and the GI50 (786-0 [11]) was 3.4 µM. It also gave an LC50 (concentration killing 50% of cells) (786-0 [11]) of over 100 µM, a TGI (786-0 [11]) of 27.7 µM and a CC50 [12] of over 100 µM. The GI50 (MCF7 [13]) was 3.6 µM, the LC50 (concentration killing 50% of cells) (MCF7 [13]) was over 100 µM and the TGI (MCF7 [13]) was 23.4 µM. For the same compound, the IC50 (Dihydrofolate reductase) was 0.32 µM, the Ka (Calf thymus DNA [14]) was 2.96 ×10⁴ /M and the Ka (Calf thymus DNA [15]) was 1.5 ×10⁴ /M. The Tm (Calf thymus DNA [16]) was 67.5 °C, the “growth inhibition (GI)” value (CCRF-CEM) was “Active” and the “growth inhibition (GI)” value (SR [17]) was “Active”. For the same compound, the inhibition of growth at 10 µM (A549 [18]) was 68%, the inhibition of growth at 10 µM [19] was 46.7% and the inhibition of growth at 10 µM [20] was 60.3%. It also gave an inhibition of growth at 10 µM (NCI-H322M) of 17.6%, an inhibition of growth at 10 µM (NCI-H522) of 44.6% and an inhibition of growth at 10 µM [21] of 76.6%. The inhibition of growth at 10 µM (KM12) was 74%, the inhibition of growth at 10 µM [22] was 53.1% and the inhibition of growth at 10 µM [23] was 32.2%. The inhibition of growth at 10 µM [24] was 39.3%, the inhibition of growth at 10 µM (U-251) was 60.8% and the inhibition of growth at 10 µM (Malme-3M) was 47.2%. For the same compound, the inhibition of growth at 10 µM (M14) was 61.1%, the inhibition of growth at 10 µM (SK-MEL-2) was 51.8% and the inhibition of growth at 10 µM (SK-MEL-5) was 52.9%. For the same compound, the inhibition of growth at 10 µM [25] was 11.9%, the inhibition of growth at 10 µM [26] was 23.2% and the inhibition of growth at 10 µM (786-0 [27]) was 53.3%. It also gave an inhibition of growth at 10 µM (A498) of 27.3% and an inhibition of growth at 10 µM (ACHN) of 62.9%.
Cc1nc2cc(Nc3nc(Nc4ccc(F)cc4)nc(-c4cccs4)n3)ccc2n1Cc1ccccc1 gave an inhibition of growth at 10 µM (SN12C) of 29.7%, an inhibition of growth at 10 µM [1] of 63.5% and an inhibition of growth at 10 µM [2] of 24.8%. The inhibition of growth at 10 µM (MCF7 [3]) was 67.1%, the inhibition of growth at 10 µM [4] was 49.7% and the inhibition of growth at 10 µM (T47D) was 76.7%. For the same compound, the CC50 [5] was over 100 µM, the LC50 (K562) was over 100 µM and the CC50 [6] was over 100 µM. The CC50 [7] was over 100 µM, the LC50 (concentration killing 50% of cells) (SR [8]) was over 100 µM and the GI50 (A549 [9]) was 7.62 µM. For the same compound, the LC50 (A549 [9]) was 55.4 µM, the TGI (A549 [9]) was 33.1 µM and the GI50 [10] was 4.66 µM. For the same compound, the LC50 (concentration killing 50% of cells) [10] was 43 µM, the TGI [10] was 14.4 µM and the GI50 (786-0 [11]) was 4.54 µM. For the same compound, the LC50 (concentration killing 50% of cells) (786-0 [11]) was over 100 µM, the TGI (786-0 [11]) was 43.5 µM and the CC50 [12] was over 100 µM. For the same compound, the GI50 (MCF7 [13]) was 5.24 µM, the LC50 (concentration killing 50% of cells) (MCF7 [13]) was 79.2 µM and the TGI (MCF7 [13]) was 21.9 µM. For the same compound, the IC50 (Dihydrofolate reductase) was 0.72 µM, the Ka (Calf thymus DNA [14]) was 3.19 ×10⁴ /M and the Ka (Calf thymus DNA [15]) was 4.21 ×10⁴ /M. For the same compound, the Tm (Calf thymus DNA [16]) was 68.5 °C, the inhibition of growth at 10 µM (CCRF-CEM; read-out: GI) was 72.8% and the inhibition of growth at 10 µM [28] was 76.5%. It also gave an inhibition of growth at 10 µM (SR [17]; read-out: GI) of 82%, an inhibition of growth at 10 µM (A549 [18]) of 56.9% and an inhibition of growth at 10 µM [19] of 7.68%. The inhibition of growth at 10 µM [20] was 78%, the inhibition of growth at 10 µM (NCI-H522) was 46.5% and the inhibition of growth at 10 µM [21] was 75.8%. It also gave an inhibition of growth at 10 µM (KM12) of 74.8%, an inhibition of growth at 10 µM [22] of 36.3% and an inhibition of growth at 10 µM [23] of 40.1%. It also gave an inhibition of growth at 10 µM [24] of 33.3%, an inhibition of growth at 10 µM (Malme-3M) of 22.4% and an inhibition of growth at 10 µM (M14) of 46.9%. For the same compound, the inhibition of growth at 10 µM (SK-MEL-2) was 27.1%, the inhibition of growth at 10 µM (SK-MEL-5) was 23.5% and the inhibition of growth at 10 µM [25] was 7.98%. The inhibition of growth at 10 µM [26] was 4.89%, the inhibition of growth at 10 µM (786-0 [27]) was 62.5% and the inhibition of growth at 10 µM (A498) was 44%. The inhibition of growth at 10 µM (ACHN) was 54.4%.
